The nature of data set [1]: Solubility of the compound in water. It counts as physicochemical. The following applies: buffer.
The subject of another data set is PSN1. Description: Cytotoxicity against human PSN1 cells at 25 ug/ml. It counts as functional, cell-based.
Another data set relates to HT-29. Description: Cytotoxicity against human HT-29 cells at 25 ug/ml. It counts as functional, cell-based.
In a further data set the test system is MDA-MB-231. Description: Cytotoxicity against human MDA-MB-231 cells at 25 ug/ml. It is filed as functional, cell-based.
A further data set deals with A549. The data set can be described thus: Cytotoxicity against human A549 cells at 25 ug/ml. It is filed as functional, cell-based.

Each structure is given as a SMILES string. Activity calls are given as the source filed them. No cut-off for these calls is given here.

On to `O=C(NCCS(=O)(=O)O)c1cc(O)c2c(c1)C(=O)c1cc(O)c(CNCCS(=O)(=O)O)c(O)c1C2=O`, for which the solubility entry in data set [1] is “Soluble”.

Take `O=C(NCCS(=O)(=O)O)c1cc(O)c2c(c1)C(=O)c1cc(O)c(Br)c(O)c1C2=O`: the result in the data set with PSN1, with HT-29, in the data set on MDA-MB-231 and in the data set with A549 was inactive. The solubility entry in data set [1] is given as “Soluble”.

In the case of `CCCc1cc(O)c2c(c1)C(=O)c1cc(O)c(CNCCS(=O)(=O)O)c(O)c1C2=O`, in data set [1], the solubility result is “Soluble”.

With `O=C(NCCS(=O)(=O)O)c1cc(O)c2c(c1)C(=O)c1c(c(O)c(Br)c(O)c1-c1c(O)cc3c(c1O)C(=O)c1c(OS(=O)(=O)O)cc(C(=O)NCCS(=O)(=O)O)cc1C3=O)C2=O`, the solubility entry in data set [1] is listed as “Soluble”.

As to `O=C(O)c1cc(O)c2c(c1)C(=O)c1cc(O)c(Br)c(O)c1C2=O`, the solubility result in data set [1] is listed as “Soluble”.

Regarding `O=C(NCCS(=O)(=O)O)c1cc(OS(=O)(=O)O)c2c(c1)C(=O)c1cc(O)c(-c3c(O)c(Br)c(O)c4c3C(=O)c3cc(C(=O)NCCS(=O)(=O)O)cc(OS(=O)(=O)O)c3C4=O)c(O)c1C2=O`, the solubility entry in data set [1] is given as “Soluble”.

As for `O=C(NCCS(=O)(=O)O)c1cc(OS(=O)(=O)O)c2c(c1)C(=O)c1cc(O)c(Br)c(O)c1C2=O`, the solubility result in data set [1] is given as “Soluble”.

Regarding `CCCc1cc(O)c2c(c1)C(=O)c1cc(OS(=O)(=O)O)cc(O)c1C2=O`, the solubility entry in data set [1] is “Soluble”.

As to `O=C(NCCS(=O)(=O)O)c1cc(O)c2c(c1)C(=O)c1cc(O)cc(O)c1C2=O`, the solubility entry in data set [1] is on record as “Soluble”.
